In US20100137373A1, “PESTICIDAL COMPOSITION COMPRISING A STR[…] AN I[…]” (priority 2007, published 2010):

Key:
Phaedon cochleariae = Phaedon cochleariae test (cabbage leaf dip, larvae mortality); format: in vivo; settings: foliar, 96 h, single compound, dipped cabbage leaves infested with larvae, after 4 d
Method: (§1) The expected efficacy of a given combination of two compounds is calculated as follows (see Colby, S. R., “Calculating Synergistic and antagonistic Responses of Herbicide Combinations”, Weeds 15, pp. 20-22, 1967):
(§2) X is the efficacy expressed in % mortality of the untreated control for test compound A at a concentration of m ppm respectively m g/ha,
(§3) Y is the efficacy expressed in % mortality of the untreated control for test compound B at a concentration of n ppm respectively n g/ha,
(§4) E is the efficacy expressed in % mortality of the untreated control using the mixture of A and B at m and n ppm respectively m and n g/ha,
(§5) If the observed insecticidal efficacy of the combination is higher than the one calculated as “E”, then the combination of the two compounds is more than additive, i.e., there is a synergistic effect.
(§6) Solvent: 7 parts by weight of dimethylformamide
(§7) Emulsifier: 2 parts by weight of alkylaryl polyglycolether
To produce a suitable preparation of active compound, 1 part by weight of active compound is mixed with the stated amount of solvent and emulsifier, and the concentrate is diluted with emulsifier-containing water to the desired concentration.
Cabbage leaves (Brassica oleracea) are treated by being dipped into the preparation of the active compound of the desired concentration and are infested with larvae of the mustard beetle (Phaedon cochleariae) as long as the leaves are still moist.
After the specified period of time, the mortality in % is determined. 100% means that all the beetle larvae have been killed; 0% means that none of the beetle larvae have been killed.

Myzus persicae = Myzus persicae test (cabbage leaf dip, mortality); format: in vivo; settings: foliar, 96 h, single compound, infested cabbage leaves dipped, after 4 d
Method: as §1, §2, §3, §4, §5, §6, §7
To produce a suitable preparation of active compound, 1 part by weight of active compound is mixed with the stated amount of solvent and emulsifier, and the concentrate is diluted with emulsifier-containing water to the desired concentration. […]
After the specified period of time, the mortality in % is determined. […]

Row | Compound | mortality at 3e-06 ppm (Phaedon cochleariae; 0.000003 ppm) [%] | mortality at 3e-05 ppm (Phaedon cochleariae; 0.00003 ppm) [%] | mortality at 3e-06 ppm (Myzus persicae; 0.000003 ppm) [%] | mortality at 20 ppm (Phaedon cochleariae; 20 ppm) [%] | mortality at 0.16 ppm (Myzus persicae; 0.16 ppm) [%]
1 | CC1=CC(O/C=C2/C(=O)OC3c4ccccc4CC23)OC1=O (centres unmarked) [Compound A] | 0 | 0 | 0 |  | 
2 | O=[N+]([O-])NC1=NCCN1Cc1ccc(Cl)nc1 [Imidacloprid, reference compound] |  |  |  | 70 | 10
